Source: publication PMC10518255, “A first-in-class pan-lysyl oxidase inhibitor impairs stromal remodeling and enhances gemcitabine response and survival in pancreatic cancer” (Nature Cancer, 2023)
“And” between values parts separate entries of the source, which are not always exact repeats. Identical values can stand only once.

Experiments:
[1] = molecular target: T1, Recombinant LOXL-3 (Homo sapiens, UniProt P58215); test: Lysyl oxidase enzymatic activity, fluorescence-based assay, IC50; assay type: biochemical
T1 sequence (P58215 26-753): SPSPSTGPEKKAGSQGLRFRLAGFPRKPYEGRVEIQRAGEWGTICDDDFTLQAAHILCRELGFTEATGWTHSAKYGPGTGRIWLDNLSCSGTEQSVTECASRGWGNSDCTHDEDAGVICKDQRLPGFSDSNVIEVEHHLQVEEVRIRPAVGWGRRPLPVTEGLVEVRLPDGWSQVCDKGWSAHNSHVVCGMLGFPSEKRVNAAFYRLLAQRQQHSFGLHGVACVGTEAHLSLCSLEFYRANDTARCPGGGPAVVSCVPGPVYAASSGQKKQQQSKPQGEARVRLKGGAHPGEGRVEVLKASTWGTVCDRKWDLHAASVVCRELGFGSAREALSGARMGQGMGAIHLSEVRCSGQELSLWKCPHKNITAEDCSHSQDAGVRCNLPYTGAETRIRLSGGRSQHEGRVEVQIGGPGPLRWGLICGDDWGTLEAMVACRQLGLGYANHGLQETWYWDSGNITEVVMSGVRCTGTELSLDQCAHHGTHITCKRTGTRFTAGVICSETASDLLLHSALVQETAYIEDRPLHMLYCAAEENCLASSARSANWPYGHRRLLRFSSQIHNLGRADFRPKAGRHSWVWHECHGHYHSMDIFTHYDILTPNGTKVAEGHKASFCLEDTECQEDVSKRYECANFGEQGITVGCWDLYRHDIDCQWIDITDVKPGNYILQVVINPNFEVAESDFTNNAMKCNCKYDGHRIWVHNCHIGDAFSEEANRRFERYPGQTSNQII
From the text: Data are presented as mean ± s.d. […] Data presented as mean ± s.d. […] Source data TEXT PRINTED IN THE PICTURE: (b) PXS-5505: Recombinant DAO IC50 (nM): >30,000; Recombinant SSAO/VAP1 IC50 (nM): >30,000; Recombinant MAO-A IC50 (nM): >30,000; Recombinant MAO-B IC50 (nM): >30,000 | (f) PXS-5505: Fibroblast LOX IC50 (nM): 4,930; Recombinant LOXL-1 IC50 (nM): 1,590; Recombinant LOXL-2 IC50 (nM): 570; Recombinant LOXL-3 IC50 (nM): 1,800; Recombinant LOXL-4 IC50 (nM): 190
In characterizing PXS-5505, the half-maximum inhibitory concentration (IC50) values for each of the lysyl oxidase family members were determined by measuring enzymatic activity using a fluorescence-based assay.
(§1) Data presented as mean values +/− SD. f. […] Data presented as mean values +/− SD. […] Data presented as mean values +/− SD. […] Data presented as mean values +/− SD. Ordinary one-way ANOVA for multiple comparison test performed. Source data

[2] = system: KPC CAFs; test: 2D cell viability assay (MTS); assay type: cell-based, mouse; settings: for 2D cell viability (MTS assay): CAFs, replicates
Experimental: (§2) The 2D cell viability assays were performed using KPC CAFs and CCs seeded at (250 CAFs per well) and (500 CCs per well) in a 96-well plate. MTS solution (Promega) was added to the cells at a 1:20 dilution and cells were incubated at 37 °C for 2 h. Cell proliferation rates were measured by detecting the absorbance at 490 nm using a microplate reader. Three biological repeats were performed.
as §1

[3] = 2D cell viability assay (MTS); assay type: cell-based, mouse; settings: mouse, replicates
Experimental: as §2, §1

[4] = system: KPC CCs; test: 2D cell viability assay (MTS); assay type: cell-based, mouse; settings: for 2D cell viability (MTS assay): Cancer cells, replicates
Experimental: as §2, §1

With `Cl.Cl.NC/C=C(\F)CS(=O)(=O)c1cccc2cccnc12.O` [PXS-5505, (Z)-3-fluoro-4-(quinolin-8-ylsulfonyl)but-2-en-1-amine dihydrochloride monohydrate] the IC50 [1] was 1800 nM, the “LOXL3 activity, IC50 determination curve” value ([1]; log(Concentration) -4.52288, replicates, 30 µM) was 0.995 and -0.1448 and -2.1827 and the “LOXL3 activity, IC50 determination curve” value ([1]; log(Concentration) -5, replicates, 10 µM) was 5.702. The “LOXL3 activity, IC50 determination curve” value ([1]; log(Concentration) -5.47712, replicates, 3.333 µM) was 36.152 and 26.2163, the “LOXL3 activity, IC50 determination curve” value ([1]; log(Concentration) -5.95424, replicates, 1.111 µM) was 67.7528 and 54.7261 and the “LOXL3 activity, IC50 determination curve” value ([1]; log(Concentration) -6.43136, replicates, 0.3704 µM) was 85.8582 and 75.7761. The “LOXL3 activity, IC50 determination curve” value ([1]; log(Concentration) -6.90849, replicates, 0.1235 µM) was 94.2403 and 83.1634, the “LOXL3 activity, IC50 determination curve” value ([1]; log(Concentration) -7.38561, replicates, 0.04115 µM) was 97.9203 and 84.9527 and the “LOXL3 activity, IC50 determination curve” value ([1]; log(Concentration) -7.86273, replicates, 0.01372 µM) was 99.768 and 85.7835. The “LOXL3 activity, IC50 determination curve” value ([1]; log(Concentration) -8.33985, replicates, 0.004572 µM) was 101.158 and 89.5879, the “LOXL3 activity, IC50 determination curve” value ([1]; log(Concentration) -8.81697, replicates, 0.001524 µM) was 100.452 and 87.3896 and the “LOXL3 activity, IC50 determination curve” value ([1]; log(Concentration) -9.29409, replicates, 0.000508 µM) was 100.732 and 88.8381. It also gave an activity at 10 µM ([1]; read-out: LOXL3 activity, IC50 determination curve, log(Concentration) -5, replicates) of 7.74%, an activity at 3.333 µM ([1]; read-out: LOXL3 activity, IC50 determination curve, log(Concentration) -5.47712, replicates) of 30.5% and an activity at 1.111 µM ([1]; read-out: LOXL3 activity, IC50 determination curve, log(Concentration) -5.95424, replicates) of 62.6%. The activity at 0.3704 µM ([1]; read-out: LOXL3 activity, IC50 determination curve, log(Concentration) -6.43136, replicates) was 82.5%, the activity at 0.1235 µM ([1]; read-out: LOXL3 activity, IC50 determination curve, log(Concentration) -6.90849, replicates) was 98.2% and the activity at 0.04115 µM ([1]; read-out: LOXL3 activity, IC50 determination curve, log(Concentration) -7.38561, replicates) was 96.9%. It also gave an activity at 0.01372 µM ([1]; read-out: LOXL3 activity, IC50 determination curve, log(Concentration) -7.86273, replicates) of 96.8%, an activity at 0.004572 µM ([1]; read-out: LOXL3 activity, IC50 determination curve, log(Concentration) -8.33985, replicates) of 99.1% and an activity at 0.001524 µM ([1]; read-out: LOXL3 activity, IC50 determination curve, log(Concentration) -8.81697, replicates) of 100%. The activity at 0.000508 µM ([1]; read-out: LOXL3 activity, IC50 determination curve, log(Concentration) -9.29409, replicates) was 99.7%, the “2D cell viability (MTS assay)” value ([2]; PXS-5505 0.3 (unit not given)) was 89.24 and 85.85 and the “2D cell viability (MTS assay)” value ([2]; PXS-5505 3 (unit not given)) was 104.51 and 107.51. For the same compound, the “2D cell viability (MTS assay)” value ([2]; PXS-5505 30 (unit not given)) was 111.18 and 108.48, the “2D cell viability (MTS assay)” value ([2]; PXS-5505 100 (unit not given)) was 94.55 and 103.25 and the “2D cell viability (MTS assay)” value ([2]; PXS-5505 300 (unit not given)) was 90.49 and 84.11. The “effect on proliferation, 2D” value ([2]; KPC CAFs, up to 300 µM) was “nor did it show any effect on proliferation”, the viability ([3]; KPC CAFs (2D culture), CAFs, PXS-5505 0.3 (unit inferred)) was 100% and the viability ([3]; KPC CAFs (2D culture), CAFs, PXS-5505 3 (unit inferred)) was 94.8%. For the same compound, the viability ([3]; KPC CAFs (2D culture), CAFs, PXS-5505 30 (unit inferred)) was 101%, the viability ([3]; KPC CAFs (2D culture), CAFs, PXS-5505 100 (unit inferred)) was 89.7% and the viability ([3]; KPC CAFs (2D culture), CAFs, PXS-5505 300 (unit inferred)) was 92.6%. The viability ([3]; KPC cancer cells (CCs, 2D culture), Cancer cells, PXS-5505 0.3 (unit inferred)) was 100%, the viability ([3]; KPC cancer cells (CCs, 2D culture), Cancer cells, PXS-5505 3 (unit inferred)) was 109% and the viability ([3]; KPC cancer cells (CCs, 2D culture), Cancer cells, PXS-5505 30 (unit inferred)) was 110%. For the same compound, the viability ([3]; KPC cancer cells (CCs, 2D culture), Cancer cells, PXS-5505 100 (unit inferred)) was 102%, the viability ([3]; KPC cancer cells (CCs, 2D culture), Cancer cells, PXS-5505 300 (unit inferred)) was 98.8% and the “2D cell viability (MTS assay)” value ([4]; PXS-5505 0.3 (unit not given)) was 100 and 109.75. For the same compound, the “2D cell viability (MTS assay)” value ([4]; PXS-5505 3 (unit not given)) was 110.09 and 116.21, the “2D cell viability (MTS assay)” value ([4]; PXS-5505 30 (unit not given)) was 104.54 and 100.45 and the “2D cell viability (MTS assay)” value ([4]; PXS-5505 100 (unit not given)) was 94.9 and 85.15. The “2D cell viability (MTS assay)” value ([4]; PXS-5505 300 (unit not given)) was 94.9 and 96.71 and the “effect on proliferation, 2D” value ([4]; KPC CCs, up to 300 µM) was “nor did it show any effect on proliferation”.
